Measured values reported in patent US20170246146A1, “POLYPHENOL FOR WOUND HEALING” (IC-MedTech Corporation, priority 2012, published 2017).
One block for each compound: values may come before it.

Key:
prostaglandin E2 (PGE-2) = assay: PGE-2 ELISA in EPIDERMFT assay medium; format: cell-based, Human; details: 24 hr exposure; negative control 6.1 ng/mL
Method: (§1) Enzyme-linked immunosorbent assay (ELISA) kits were used to test for the presence of the cytokine interleukin-1 alpha (IL-1α) and the inflammatory mediator prostaglandin E2 (PGE-2) in the assay medium. Approximately 1 mL of the media from beneath the tissue millicells were sampled at the end of dosing and incubation. The assays were conducted according to the manufacturer's directions on both undiluted samples and samples diluted to 10% in order to obtain the detectable protein range of the ELISA kits. Protein standards were run with both ELISAs in order to derive standard curves.

[1] = system: MatTek EPIDERMFT™ (Full Thickness skin) tissue; assay: MatTek EPIDERM MTT Viability Assay (dermal irritation potential); format: cell-based, Human
Method: The MatTek EPIDERM™ MTT Viability Assay was employed as a quantitative method for assessing the dermal irritation potential of TOLECINE®. MatTek EPIDERMFT™ (Full Thickness skin) tissue samples were treated with TOLECINE® (neat) or a positive control (1% Triton X-100) for various exposure times ranging from 1 to 24 hrs. Negative controls (undosed tissues) were tested for 8 hrs only. Following treatment, the viability of the tissues were determined using MTT uptake and conversion and the absorbance of each sample was measured at 540 nm using a reference wavelength of 690 nm. The viability was then expressed as a percent of control values. The mean percent of each time point was used to calculate an ET50, which represented the time at which the EPIDERMFT™ tissue viability was reduced 50% compared to the control tissue.

intracellular peroxides = assay: Pro-oxidant production (DCFH-DA fluorescence); format: cell-based
Method: Production of intracellular peroxides was monitored spectrofluorometrically using dichlorofluorescein diacetate (DCFH-DA) as a fluorescent dye. Cell suspensions were treated with DCFH-DA at a final concentration of 100 μM in the medium. Oxidation of DCFH by peroxides yields dichlorofluorescein (DCF). Fluorescence was monitored at the excitation and emission wavelengths of 485 and 530 nm, respectively, using a fluorescence plate reader (50 cycles per 20 s at 37° C.) (Biotek Synergy HT®). Hydrogen peroxide (μM) was determined based on fluorescence generated from a hydrogen peroxide standard curve.
Apatone production of hydrogen peroxide was determined based a standard curve. Serial dilutions of Apatone (1000/10, 500/5, 250/2.5, 125/1.25, and 62.5/0.625) were then added to cells pre-treated with DCF-DA and read over a series of time points (1, 3, 5, and 24 hrs).

[2] = system: Human foreskin fibroblasts; assay: Scratch wound assay, fibroblasts; format: cell-based
Method: (§2) A scratch wound assay was employed to evaluate the in vitro wound healing capacity of APATONE® and TOLECINE®. For the scratch-wound assay, cells were seeded on 6-well culture plates. At 80% cell confluence, a scratch-wound was produced using a sterile pipette tip and the size of the gap was measured and set to 100%. The cells were treated with test agents at various concentrations and the closing of the scratch-wound was measured at 24, 48, and 72 hrs. This experiment was performed three times for each cell line. Human foreskin fibroblasts were employed to optimize the assay because of the involvement of fibroblasts in wound healing. Human skin fibroblasts were scratched and then sham treated or treated with VC alone or APATONE® for 24 hrs.

Keratinocytes = assay: Scratch wound assay, keratinocytes; format: cell-based; details: compared with fibroblast data
Method: as §2
Keratinocytes were grown to 90% confluence and then scratched to generate a wound. Cells were then treated with sham (fresh media) or a single dose of APATONE® at 75 μM sodium ascorbate and 0.75 μM menadione sodium bisulfate. […] Without being limited by any theory, the decreased closure of APATONE® during the second 24 hrs probably reflects metabolism of the vitamins by the keratinocytes.

[3] = system: full thickness excision wounds; assay: Wound healing studies in mice; format: in vivo, Balbc/J male mice; details: topical, days 0-5, by day 5, glycerin 27%
Method: Sixty, 5-6 week old Balbc/J male mice were ear notched for identification and housed in individually and positively ventilated polycarbonate cages with HEPA filtered air. Bed-o-cob corn cob bedding were used and cages were changed every two weeks. The animal room was lighted entirely with artificial fluorescent lighting, with a controlled 12 hr light/dark cycle. The normal temperature and relative humidity ranges in the animal rooms were 22±4° C. and 50±15%, respectively. The animal rooms were set to have 15 air exchanges per hour. Filtered tap water, acidified to a pH of 2.8 to 3.1, and rodent chow were provided ad libitum.
Following a 5 to 7 days acclimation, mice were randomized by body weight into 6 cohorts of 10 mice each. On study day 0 (D0), mice were anesthetized and two full thickness excision wounds (˜6 mm) were made on the dorsum (backs) of mice. One of the wounds was covered using a semi-occlusive polyurethane dressing (TEGADERM™). […]
Wound measurements were made on days 5, 7, 9, and 11. […] Traces were captured by scan and analyzed by a computer imaging software. […]
After being wounded, the mice had saddles applied around the wounds to prevent cross contamination and wound closure due to constriction. […] At day 5, test agents were removed and changes in wound area were measured in an effort to gauge the persistence of the compounds in the wound site.

VEGF = VEGF production (VEGF Quantiglo Immunoassay); format: cell-based, Human; details: for VEGF: keratinocytes
Method: Human adult keratinocytes were plated into a 6 well plate and allowed to grow to >80% confluency. The back of a rubber scraper was then used to scratch each plate, creating a uniform linear wound across each well. Cells were then rinsed with media to remove non-adherent cells and drugs at indicated concentrations were added. Media aliquots were taken at 1, 3, 6, or 16 hrs and spun down at 6,250 rpm for 10 minutes. Supernatants were then collected and stored at −4 ° C. until assayed using the VEGF Quantiglo Immunoassay (Research and Development Systems) according to kit instructions.

[4] = system: interleukin-1 alpha (IL-1α); assay: IL-1α ELISA in EPIDERMFT assay medium; format: cell-based, Human; details: 24 hr exposure; negative control 8.156 pg/mL
Method: as §1

- PGE-2 levels (prostaglandin E2 (PGE-2)): 9.5 ng/mL
Compound: Oc1ccc(C#Cc2ccc(O)cc2)cc1 [TOLECINE®, 4,4′-(ethyne-1,2-diyl)diphenol]
- ET50 (time at which tissue viability was reduced 50% compared to control) ([1]; human): greater than 24 hrs
- hydrogen peroxide production, dose dependence (intracellular peroxides; FIGS. 4-6): dose dependent
- hydrogen peroxide production over time (intracellular peroxides; keratinocytes exposed for 5 hrs or more): continued to increase
- wound closure ([2]; 2.5 μM, 24 hrs, sham 30%): 85%
- wound closure ([2]; 2.5 μM, 48 hrs, sham 80%): 100%
- wound closure ([2]; 5 μM, 24 hrs, sham 30%): 85%
- wound closure ([2]; 5 μM, 48 hrs, sham 80%): 100%
- wound closure ([2]; 10 μM, 24 hrs, sham 30%): 100%
- wound closure in keratinocytes (Keratinocytes): closely approximated that observed with fibroblasts
- wound closure ([3]; 2.5% in glycerin): 93%
- wound closure ([3]; 5% TOLECINE® in glycerin): 87%
- VEGF (VEGF; 10 μM, 1 hr, sham 12.4): 32.6 pg/mL
- VEGF (VEGF; 10 μM, 3 hrs, sham 13.2): 29.4 pg/mL
- VEGF (VEGF; 10 μM, 6 hrs, sham 42.0): 120 pg/mL
- VEGF (VEGF; 10 μM, 6 hrs, sham 42.0, listed as TOL): 120.7 pg/mL
- VEGF (VEGF; 10 μM, 16 hrs, sham 67.4): 237 pg/mL
- VEGF (VEGF; 10 μM, 16 hrs, sham 67.4, listed as TOL): 237.2 pg/mL
- VEGF production, early time course (VEGF; 10 μM, first 3 hrs): lag in VEGF production
- VEGF (VEGF; 20 μM, 1 hr, sham 12.4): 121.2 pg/mL
- VEGF (VEGF; 20 μM, 3 hrs, sham 13.2): 148.7 pg/mL
- VEGF (VEGF; 20 μM, 6 hrs, sham 42.0): 225 pg/mL
- VEGF (VEGF; 20 μM, 6 hrs, sham 42.0, listed as TOL): 225.9 pg/mL
- VEGF (VEGF; 20 μM, 16 hrs, sham 67.4): 457 pg/mL
- VEGF (VEGF; 20 μM, 16 hrs, sham 67.4, listed as TOL): 457.2 pg/mL

Compound: O=C1O[C@H]([C@@H](O)CO)C(O)=C1O [VC, L-ascorbic acid, reference compound]
- width of the scratch ([2]; 2,000 μM VC, at 24 hrs, 28.0 μm immediately after scratching (sham 15.8 to 8.3 μm)): 16.9 μm
- activity in scratch wound assay ([2]; VC alone at 75 μM): not active
- wound closed ([2]; fibroblasts, after 24 hrs, FIG. 1 (VC 2000 μM), sham about 57%): about 43%

Compound: Oc1ccc(C=Cc2cc(O)cc(O)c2)cc1 [resveratrol, reference compound]
- VEGF production compared with TOLECINE® (VEGF; 20 μM each): less than the VEGF production by TOLECINE® at 20 μM
- VEGF (VEGF; resveratrol 20 μM, 1 hr, sham 12.4): 139.0 pg/mL
- VEGF (VEGF; resveratrol 20 μM, 3 hrs, sham 13.2): 166.7 pg/mL
- VEGF (VEGF; resveratrol 20 μM, 6 hrs, sham 42.0): 196 pg/mL
- VEGF (VEGF; resveratrol 20 μM, 6 hrs, sham 42.0, listed as RES): 196.0 pg/mL
- VEGF (VEGF; resveratrol 20 μM, 16 hrs, sham 67.4): 274 pg/mL
- VEGF (VEGF; resveratrol 20 μM, 16 hrs, sham 67.4, listed as RES): 274.1 pg/mL

Compound: Triton X-100 [positive control, reference compound]
- PGE-2 levels (prostaglandin E2 (PGE-2)): 1211 ng/mL
- ET50 (time at which tissue viability was reduced 50% compared to control) ([1]; TOLECINE® neat, positive control 1% Triton X-100, exposure 1 to 24 hrs, MTT): 10.4 h
- IL-1α levels [4]: 168 pg/mL
